Source: ChEMBL document CHEMBL5576077, “A small-molecule degron with a phenylpropionic acid scaffold” (Bioorg Med Chem, 2024)
Active and inactive are the calls of the source. The calls are words filed in the database; no cut-off is given here.

Columns and labels:
[1] = biological target: T1, S-phase kinase-associated protein 2/Haloalkane dehalogenase (Homo sapiens) (UniProt Q13309+P0A3G3); experiment: PROTAC activity at Skp2 in HEK293 cells/HaloTag7 fusion protein (unknown origin) stably expressed in HEK293 cells assessed as protein degradation by measuring test to control ratio at 3 uM incubated for 24 hrs by Western blot analysis; type: cell-based
[2] = biological target: T2, S-phase kinase-associated protein 2/Bifunctional ligase/repressor BirA (Homo sapiens) (UniProt P06709+Q13309); experiment: PROTAC activity at Skp2 in HeLa cells/N-terminal HaloTag7-fused TurboID (unknown origin) stably expressed in HeLa cells assessed as protein degradation at 30 uM incubated for 3 to 8 hrs in presence of BafA by Western blot analysis; type: cell-based; conditions: time 3-8 hrs
[3] = Thermal stabilization of GST-fused HaloTag fusion protein (unknown origin) at 100 uM by SYPRO Orange dye based TSA assay
[4] = biological target: T2, S-phase kinase-associated protein 2/Bifunctional ligase/repressor BirA (Homo sapiens); experiment: PROTAC activity at Skp2 in HeLa cells/N-terminal HaloTag7-fused TurboID (unknown origin) stably expressed in HeLa cells assessed as protein degradation at 30 uM incubated for 3 hrs by Western blot analysis; type: cell-based
[5] = biological target: T2, S-phase kinase-associated protein 2/Bifunctional ligase/repressor BirA (Homo sapiens); experiment: PROTAC activity at Skp2 in HeLa cells/N-terminal HaloTag7-fused TurboID (unknown origin) stably expressed in HeLa cells assessed as protein degradation at 30 uM incubated for 3 to 8 hrs in presence of MG132 by Western blot analysis; type: cell-based; conditions: time 3-8 hrs
[6] = biological target: T2, S-phase kinase-associated protein 2/Bifunctional ligase/repressor BirA (Homo sapiens); experiment: PROTAC activity at Skp2 in HeLa cells/N-terminal HaloTag7-fused TurboID (unknown origin) stably expressed in HeLa cells assessed as protein degradation at 30 uM incubated for 3 to 8 hrs in presence of NH4Cl by Western blot analysis; type: cell-based; conditions: time 3-8 hrs
[7] = biological target: T2, S-phase kinase-associated protein 2/Bifunctional ligase/repressor BirA (Homo sapiens); experiment: PROTAC activity at Skp2 in HeLa cells/N-terminal HaloTag7-fused TurboID (unknown origin) stably expressed in HeLa cells assessed as protein degradation at 30 uM incubated for 8 hrs in presence of MLN4924 by Western blot analysis; type: cell-based
[8] = biological target: T2, S-phase kinase-associated protein 2/Bifunctional ligase/repressor BirA (Homo sapiens); experiment: PROTAC activity at Skp2 in HeLa cells/N-terminal HaloTag7-fused TurboID (unknown origin) stably expressed in HeLa cells assessed as protein degradation at 30 uM incubated for 3 to 8 hrs in presence of Epoxomicin by Western blot analysis; type: cell-based; conditions: time 3-8 hrs
[9] = biological target: T1, S-phase kinase-associated protein 2/Haloalkane dehalogenase (Homo sapiens); experiment: PROTAC activity at Skp2 in HEK293 cells/HaloTag7 fusion protein (unknown origin) stably expressed in HEK293 cells assessed as protein degradation by measuring test to control ratio at 0.3 uM incubated for 24 hrs by Western blot analysis; type: cell-based
[10] = biological target: T1, S-phase kinase-associated protein 2/Haloalkane dehalogenase (Homo sapiens); experiment: PROTAC activity at Skp2 in HEK293 cells/HaloTag7 fusion protein (unknown origin) stably expressed in HEK293 cells assessed as protein degradation by measuring test to control ratio at 1 uM incubated for 24 hrs by Western blot analysis; type: cell-based
[11] = biological target: T1, S-phase kinase-associated protein 2/Haloalkane dehalogenase (Homo sapiens); experiment: PROTAC activity at Skp2 in HEK293 cells/HaloTag7-ELuc fusion protein (unknown origin) stably expressed in HEK293 cells assessed as protein degradation at 1 to 10 uM incubated for 24 hrs by Western blot analysis; type: cell-based; conditions: dose 1-10 µM
[12] = biological target: T2, S-phase kinase-associated protein 2/Bifunctional ligase/repressor BirA (Homo sapiens); experiment: PROTAC activity at Skp2 in HeLa cells/N-terminal HaloTag7-fused TurboID (unknown origin) stably expressed in HeLa cells assessed as protein degradation at 30 uM incubated for 8 hrs by Western blot analysis; type: cell-based

O=C(O)CCc1ccc(OCCOCCOCCOCCCCCCCl)cc1/C=C1\SC(=S)N(Cc2cccnc2)C1=O
T/C [1]: 81

O=C(O)CCc1ccc(OCCOCCOCCOCCOCCCCCCCl)cc1/C=C1\SC(=S)N(Cc2cccnc2)C1=O
Activity [2]: Active | Activity [3]: Active | Activity [4]: Active | Activity [5]: inactive | Activity [6]: Active | T/C [1]: 25 | Activity [7]: Active | Activity [8]: inactive

O=C(O)CCc1ccc(OCCOCCOCCOCCOCCOCCCCCCCl)cc1/C=C1\SC(=S)N(Cc2cccnc2)C1=O
T/C [9]: 82 | T/C [1]: 37 | T/C [10]: 64

O=C(O)CCc1ccc(OCCCOCCCOCCCCCCCl)cc1/C=C1\SC(=S)N(Cc2cccnc2)C1=O
Activity [11]: Active

O=C(O)COc1ccc(O)cc1/C=C1\SC(=S)N(Cc2cccnc2)C1=O
Activity [12]: inactive

O=C(O)COc1ccc(OCCOCCOCCOCCOCCOCCCCCCCl)cc1/C=C1\SC(=S)N(Cc2cccnc2)C1=O
T/C [9]: 111 | T/C [1]: 103 | T/C [10]: 121

OCCOCCOCCOCCOCCCCCCCl
Activity [12]: inactive
